Read-outs that look alike come from different tables or passages of the source.
Assay: Pharmacokinetic evaluation in humans
Assay type: in vivo
Settings: human; for clearance / Cmax / Vd / half-life / AUC(0-t) / AUC(0-inf): plasma
Experimental: Plasma and urine RLip-EA-OH concentrations were measured at BASi, Inc. (West Lafayette, Ind.) using a LC/MS/MS method with positive turbo ion spray, in the multiple reaction-monitoring mode. The quantifiable range for human plasma was 1.00 to 500 ng/mL and QC samples were included at 3.00, 75.0 and 375 ng/mL.
The PK population included subjects who received RLip-EA-OH and had ≧1 post-dose PK measurement. […] Plasma samples from 24 subjects (6 RLip-EA-OH subjects per cohort) were analyzed (Tables 16 and 17).

## C[C@H](NC(=O)[C@H](CCC(=O)O)NC(=O)CCCC[C@@H]1CCSS1)C(=O)O [RLip-EA-OH, N-(R)-lipoyl-L-glutamyl-L- alanine]
150 mg, compartmental, read-out: CL, Median (converted)
  clearance: 363 mL/min
150 mg, compartmental, read-out: CL, Minimum, maximum
  clearance: 260 to 512 mL/min
150 mg, compartmental, read-out: Estimated Cmax, Mean (SD)
  Cmax: 18100 ng/mL
150 mg, compartmental, read-out: Estimated Cmax, Median
  Cmax: 18400 ng/mL
150 mg, compartmental, read-out: Estimated Cmax, Minimum, maximum
  Cmax: 14200 to 20600 ng/mL
150 mg, compartmental, read-out: Vss, Mean (SD)
  Vd: 13 L
150 mg, compartmental, read-out: Vss, Median
  Vd: 13 L
150 mg, compartmental, read-out: Vss, Minimum, maximum
  Vd: 9 to 17 L
150 mg, compartmental, read-out: t1/2, Mean (SD) (converted)
  half-life: 108 min
150 mg, compartmental, read-out: t1/2, Median (converted)
  half-life: 84 min
150 mg, compartmental, read-out: t1/2, Minimum, maximum
  half-life: 66 to 198 min
150 mg, noncompartmental, read-out: AUC0-t, Mean (SD)
  AUC(0-t): 6980 ng·h/mL
150 mg, noncompartmental, read-out: AUC0-t, Median
  AUC(0-t): 6900 ng·h/mL
150 mg, noncompartmental, read-out: AUC0-t, Minimum, maximum
  AUC(0-t): 4970 to 9330 ng·h/mL
150 mg, noncompartmental, read-out: AUCinf, Mean (SD)
  AUC(0-inf): 6990 ng·h/mL
150 mg, noncompartmental, read-out: AUCinf, Median
  AUC(0-inf): 6920 ng·h/mL
150 mg, noncompartmental, read-out: AUCinf, Minimum, maximum
  AUC(0-inf): 4980 to 9340 ng·h/mL
150 mg, noncompartmental, read-out: CL, Mean (SD) (converted)
  clearance: 372 mL/min
150 mg, noncompartmental, read-out: CL, Median (converted)
  clearance: 363 mL/min
150 mg, noncompartmental, read-out: CL, Minimum, maximum
  clearance: 268 to 502 mL/min
150 mg, noncompartmental, read-out: Cmax, Mean (SD)
  Cmax: 17100 ng/mL
150 mg, noncompartmental, read-out: Cmax, Median
  Cmax: 17000 ng/mL
150 mg, noncompartmental, read-out: Cmax, Minimum, maximum
  Cmax: 14900 to 20000 ng/mL
150 mg, noncompartmental, read-out: Vss, Mean (SD)
  Vd: 13.6 L
150 mg, noncompartmental, read-out: Vss, Median
  Vd: 13.2 L
150 mg, noncompartmental, read-out: Vss, Minimum, maximum
  Vd: 9.9 to 16.6 L
150 mg, noncompartmental, read-out: t1/2, Mean (SD) (converted)
  half-life: 73.8 min
150 mg, noncompartmental, read-out: t1/2, Median (converted)
  half-life: 75 min
150 mg, noncompartmental, read-out: t1/2, Minimum, maximum
  half-life: 58.2 to 91.2 min
300 mg, compartmental, read-out: AUCinf, Mean (SD)
  AUC(0-inf): 16400 ng·h/mL
300 mg, compartmental, read-out: AUCinf, Median
  AUC(0-inf): 16400 ng·h/mL
300 mg, compartmental, read-out: AUCinf, Minimum, maximum
  AUC(0-inf): 11500 to 22600 ng·h/mL
300 mg, compartmental, read-out: CL, Mean (SD) (converted)
  clearance: 323 mL/min
300 mg, compartmental, read-out: CL, Median (converted)
  clearance: 305 mL/min
300 mg, compartmental, read-out: CL, Minimum, maximum
  clearance: 222 to 435 mL/min
300 mg, compartmental, read-out: Estimated Cmax, Mean (SD)
  Cmax: 46300 ng/mL
300 mg, compartmental, read-out: Estimated Cmax, Median
  Cmax: 43400 ng/mL
300 mg, compartmental, read-out: Estimated Cmax, Minimum, maximum
  Cmax: 31000 to 70100 ng/mL
300 mg, compartmental, read-out: Vss, Mean (SD)
  Vd: 11 L
300 mg, compartmental, read-out: Vss, Median
  Vd: 11 L
300 mg, compartmental, read-out: Vss, Minimum, maximum
  Vd: 8 to 16 L
300 mg, compartmental, read-out: t1/2, Mean (SD) (converted)
  half-life: 90 min
300 mg, compartmental, read-out: t1/2, Median (converted)
  half-life: 72 min
300 mg, compartmental, read-out: t1/2, Minimum, maximum
  half-life: 60 to 150 min
300 mg, noncompartmental, read-out: AUC0-t, Mean (SD)
  AUC(0-t): 16500 ng·h/mL
300 mg, noncompartmental, read-out: AUC0-t, Median
  AUC(0-t): 16500 ng·h/mL
300 mg, noncompartmental, read-out: AUC0-t, Minimum, maximum
  AUC(0-t): 11600 to 23100 ng·h/mL
300 mg, noncompartmental, read-out: AUCinf, Mean (SD)
  AUC(0-inf): 16500 ng·h/mL
300 mg, noncompartmental, read-out: AUCinf, Median
  AUC(0-inf): 16500 ng·h/mL
300 mg, noncompartmental, read-out: AUCinf, Minimum, maximum
  AUC(0-inf): 11600 to 23100 ng·h/mL
300 mg, noncompartmental, read-out: CL, Mean (SD) (converted)
  clearance: 322 mL/min
300 mg, noncompartmental, read-out: CL, Median (converted)
  clearance: 303 mL/min
300 mg, noncompartmental, read-out: CL, Minimum, maximum
  clearance: 217 to 430 mL/min
300 mg, noncompartmental, read-out: Cmax, Mean (SD)
  Cmax: 42200 ng/mL
300 mg, noncompartmental, read-out: Cmax, Median
  Cmax: 42200 ng/mL
300 mg, noncompartmental, read-out: Cmax, Minimum, maximum
  Cmax: 32000 to 58100 ng/mL
300 mg, noncompartmental, read-out: Vss, Mean (SD)
  Vd: 11.7 L
300 mg, noncompartmental, read-out: Vss, Median
  Vd: 11.1 L
300 mg, noncompartmental, read-out: Vss, Minimum, maximum
  Vd: 8.9 to 15.1 L
300 mg, noncompartmental, read-out: t1/2, Mean (SD) (converted)
  half-life: 87 min
300 mg, noncompartmental, read-out: t1/2, Median (converted)
  half-life: 68.4 min
300 mg, noncompartmental, read-out: t1/2, Minimum, maximum
  half-life: 59.4 to 141 min
300 mg, read-out: CL (converted)
  clearance: 322 mL/min
300 mg, read-out: mean terminal-phase t1/2 (converted)
  half-life: 87 min
Across doses 20 to 300 mg, read-out: AUCinf
  AUC(0-inf): 583 to 16500 ng·h/mL
At the mg dose, read-out: mean terminal-phase t1/2 (converted)
  half-life: 51.6 min
Decreased with increasing dose, read-out: Vss
  Vd: 12 to 18 L
read-out: volume of distribution of the central compartment (Vc)
  Vd: ~6 L
20 mg, compartmental
  V1, Mean (SD): 6.61 (3.20) L
  V1, Median: 6.13 L
20 mg, noncompartmental
  % Excreted Unchanged, Mean (SD): 28.5 (9.6) %
  % Excreted Unchanged, Median: 31.0%
60 mg, compartmental
  V1, Mean (SD): 6.62 (1.65) L
  V1, Median: 6.69 L
60 mg, noncompartmental
  % Excreted Unchanged, Mean (SD): 39.1 (4.0) %
  % Excreted Unchanged, Median: 40.6%
150 mg, compartmental
  V1, Mean (SD): 6.09 (1.42) L
  V1, Median: 5.86 L
150 mg, noncompartmental
  % Excreted Unchanged, Mean (SD): 32.5 (13.9) %
  % Excreted Unchanged, Median: 33.3%
300 mg, compartmental
  V1, Mean (SD): 4.91 (1.56) L
  V1, Median: 5.59 L
300 mg, noncompartmental
  % Excreted Unchanged, Mean (SD): 43.6 (8.8) %
  % Excreted Unchanged, Median: 46.3%
